What was measured:
Assay type in all cases: physicochemical, human
[1] = GC/MS of serum sample: number of times of freezing and thawing (Table I); set-up: key to Rate of increase or decrease / Rate of increase or decrease (first value, increase): detection intensity relative to 2 freeze-thaw cycles = 1; conditions: for Number of times when compound is affected: detection intensity changed by 30% or more vs 2 times of freezing and thawing; for Rate of increase or decrease: detection intensity relative to 1 at 2 times
Procedure: (§1) After standing, the blood sample was subjected to centrifugation under a condition of room temperature, 3500 rpm, and 5 minutes. […] After centrifugation, the blood-collecting vessel was left to stand at room temperature, and the serum was isolated during this time. Here, in order to investigate how the detection intensity of molecules contained in the sample was affected in cases where the time during which the blood-collecting vessel was left at room temperature was set to 1 hour and 6 hours as compared to that in a case where the time was set to 30 minutes, preparations were performed under the respective conditions of 30 minutes, 1 hour, and 6 hours. The obtained serum sample was frozen and stored. Here, in order to investigate how the detection intensity of molecules contained in the sample was affected in cases where freezing and thawing was performed 4 times, 6 times, and 10 times after freezing as compared to that in a case where freezing and thawing was performed 2 times after freezing, freezing and thawing was performed under the respective conditions of 2, 4, 6, and 10 times.
(§2) Frozen blood plasma samples and serum samples were subjected to GC/MS or LC/MS. In GC/MS, the blood plasma samples and serum samples were subjected to methoxymation and trimethylsilylation and then introduced to GC-MS.
(§3) GC/MS was conducted using GCMS·TQ8040 (Shimadzu Corporation) that was a GC·MS equipped with AOC·20i (Shimadzu Corporation) as an autosampler.
(§4) Column: BPX5 (inner diameter of 0.25 mm, length of 30 m, and film thickness of 0.25 μm) (SGE)
(§5) Column temperature: maintained at 60° C. for 2 minutes, then raised at 15° C./min, and maintained at 330° C. for 3 minutes.
(§6) Inlet temperature: 250° C.
(§7) Carrier gas control mode: constant linear velocity of 39.0 cm/sec
(§8) Sample introduction method: split (split ratio of 30:1) Injection volume: 1 μL
(§9) Ionization method: electron ionization
(§10) Ionization current: 60 μA
(§11) Interface temperature: 280° C.
(§12) Ion source temperature: 200° C.
(§13) Mode: multiple reaction monitoring (MRM)
The rate of increase or decrease in Table I is the value of detection intensity relative to 1 that is the detection intensity in a case where the number of times of freezing and thawing is set to 2 times.

[2] = GC/MS of serum sample: time from blood collection to centrifugation (Table G); conditions: blood collection to centrifugation; for Rate of increase or decrease: detection intensity relative to 1 at 15 minutes, after 8 hours; for Increase or decrease: detection intensity, after 8 hours vs 15 minutes
Procedure: as §1, §2, §3, §4, §5, §6, §7, §8, §9, §10, §11, §12, §13
The rate of increase or decrease in Table G is the value of detection intensity relative to 1 that is the detection intensity in a case where the time from blood collection to centrifugation is set to 15 minutes.

[3] = GC/MS of serum sample: time from centrifugation to isolation (Table H); set-up: key to Rate of increase or decrease / Rate of increase or decrease (first value, increase): detection intensity relative to 1 at 30 min centrifugation-to-isolation; conditions: for Rate of increase or decrease: detection intensity relative to 1 at 30 minutes; for Increase or decrease: detection intensity
Procedure: as §1, §2, §3, §4, §5, §6, §7, §8, §9, §10, §11, §12, §13
The rate of increase or decrease in Table H is the value of detection intensity relative to 1 that is the detection intensity in a case where the time from centrifugation to isolation is set to 30 minutes.

[4] = LC/MS of serum sample: number of times of freezing and thawing (Table M); set-up: key to Rate of increase or decrease: detection intensity relative to 1 at 2 freeze-thaw cycles; conditions: for Rate of increase or decrease: 6 times of freezing and thawing, relative to 1 at 2 times, different from individual to individual
Procedure: as §1, §2
Analysis column: Discovery HS F5-3 (inner diameter of 2.1 mm, length of 150 mm, film thickness of 3 μm) (Sigma-Aldrich)
Column temperature: 40° C.
(A) 0.1% formic acid (dissolved in water)
(B) 0.1% formic acid (dissolved in acetonitrile)
Flow velocity: 0.25 mL/min
Ionization method: electrospray
Temperature: • Desolvation Line (DL) temperature: 250° C. • Heat block temperature: 400° C. • Interface temperature: 300° C.
Gas flow rate: • Nebulizer gas flow rate: 3.0 L/min • Drying gas flow rate: 10.0 L/min • Heating gas flow rate: 10.0 L/min
as §13
The rate of increase or decrease in Table M is the value of detection intensity relative to 1 that is the detection intensity in a case where the number of times of freezing and thawing is set to 2 times.

[5] = serum sample, GC/MS, detection intensity vs 2 times of freezing and thawing
[6] = 10 times of freezing and thawing

Number of times when compound is affected ([1]; serum sample, GC/MS) [times]	Increase or decrease [1, 5]	Rate of increase or decrease [2]	Increase or decrease [2]	Rate of increase or decrease ([3]; after 6 hours)	Increase or decrease ([3]; after 6 hours vs 30 minutes)	Rate of increase or decrease [1, 6]	Structure (SMILES)	other results
10	Increase	–	–	–	–	–	CNCC(=O)O [Sarcosine, sarcosine]	–
–	–	1.44	Increase	–	–	–	OC[C@@H](O)[C@@H](O)[C@@H](O)CO [Ribitol]	Rate of increase or decrease ([3]; after 1 hour): 2.32; Increase or decrease ([3]; after 1 hour vs 30 minutes): Increase
–	–	0.62	Decrease	–	–	–	OC[C@@H](O)[C@H](O)[C@@H](O)CO [Xylitol]	–
–	–	0.67	Decrease	–	–	–	CC(C)C(=O)C(=O)O [2-Ketoisovaleric acid]	–
–	–	1.46	Increase	–	–	–	NCCC(=O)O [3-Aminopropionic acid (β-alanine), 3-Aminopropionic acid]	–
–	–	–	–	–	–	–	CCCCCCCC/C=C\CCCCCCCC(N)=O [Oleamide]	Rate of increase or decrease ([1]; serum, GC/MS, freezing and thawing 4 times): 2.08; Increase or decrease ([1]; detection intensity, serum, GC/MS, freezing and thawing 4 times vs 2 times): Increase
10	Decrease	1.54	Increase	–	–	0.61	OC[C@@H](O)[C@@H](O)[C@H](O)[C@@H](O)CO [Sorbitol]	–
10	Increase	–	–	–	–	1.35	CCCCCCCCCCCCCCCCC(=O)O [Margaric acid, margaric acid]	–
–	–	–	–	–	–	–	C[C@@H](O)[C@H](N)C(=O)O [Threonine, threonine]	Rate of increase or decrease ([4]; first value (increase)): 1.31; Rate of increase or decrease ([4]; second value (decrease)): 0.69; Number of times when compound is affected ([4]; serum sample, LC/MS, detection intensity changed by 30% or more vs 2 times of freezing and thawing): 6 times; Increase or decrease ([4]; serum sample, LC/MS, detection intensity vs 2 times of freezing and thawing): Different from individual
10	Increase	–	–	1.69	Increase	2.43	N[C@H]1C(O)O[C@H](CO)[C@@H](O)[C@@H]1O (stereo partly drawn) [Glucosamine]	–
10	Increase	–	–	1.45	Increase	2.06	O=C(O)C(=O)Cc1ccccc1 [Phenylpyruvic acid]	–
–	–	–	–	–	–	–	O=C[C@H](O)[C@H](O)[C@H](O)[C@H](O)CO [Allose]	Rate of increase or decrease ([1]; serum, GC/MS, freezing and thawing 6 times): 0.62; Increase or decrease ([1]; detection intensity, serum, GC/MS, freezing and thawing 6 times vs 2 times): Decrease
10	Increase	–	–	1.58	Increase	2.17	CC(=O)N[C@@H](CCC(N)=O)C(=O)O [N-acetylglutamine]	–
–	–	1.95	Increase	2.48	Increase	–	O=C(CO)[C@@H](O)[C@H](O)CO [Xylulose]	–

Structure (SMILES)	Number of times when compound is affected ([1]; serum sample, GC/MS) [times]	Increase or decrease [1, 5]	Rate of increase or decrease [2]	Increase or decrease [2]	Rate of increase or decrease ([3]; after 6 hours)	Increase or decrease ([3]; after 6 hours vs 30 minutes)	Rate of increase or decrease [1, 6]	other results
O=C(O)CCCC(=O)O [Glutaric acid]	–	–	1.39	Increase	–	–	–	–
NO [Hydroxylamine]	10	Increase	–	–	1.87	Increase	2.31	–

Source: patent US20220146526A1, “METHOD FOR EVALUATING SAMPLE, ANALYSIS METHOD, METHOD FOR DETECTING DEGRADED SAMPLE, MARKER FOR DETECTING DEGRADED BLOOD PLASMA SAMPLE, AND MARKER FOR DETECTING DEGRADED SERUM SAMPLE” (SHIMADZU CORPORATION, priority 2019, published 2022)
